In patent US10118935B2, “Melampomagnolide B dimers” (priority 2014, dated 2018):
Where two headings read alike, the source gives them in different places.

Tests used:
[1] = test system: panel of 60 human cancer cell lines; experiment: Five-dose growth inhibition, panel; assay type: cell-based
CCRF-CEM = experiment: NCI 60 cell line five dose, Leukemia
MOLT-4 = experiment: NCI 60 cell line five dose, Leukemia
RPMI-8226 = experiment: NCI 60 cell line five dose, Leukemia
MDA-MB-435 = experiment: NCI 60 cell line five dose, Melanoma
SK-MEL-5 = experiment: NCI 60 cell line five dose, Melanoma; details: SK-MEL-5
KM12 = experiment: NCI 60 cell line five dose, Colon Cancer
ACHN = experiment: NCI 60 cell line five dose, Renal Cancer
MDA-MB-231/ATCC = experiment: NCI 60 cell line five dose, Breast Cancer
OVCAR-5 = experiment: NCI 60 cell line five dose, Ovarian Cancer
OVCAR-8 [2] = experiment: NCI 60 cell line five dose, Ovarian Cancer
OVCAR-8 [3] = test system: OVCAR-8

C=C1C(=O)O[C@H]2[C@H]1CC/C(COC(=O)NCCCCCNC(=O)OC/C1=C/CC[C@@]3(C)O[C@H]3[C@H]3OC(=O)C(=C)[C@@H]3CC1)=C\CC[C@@]1(C)O[C@@H]21 [JVM 2-76, bis(((1aR,7aS,10aS,10bS,E)-1a-Methyl-8-methylene-9-oxo-1a,2,3,6,7,7a,8,9,10a,10b-decahydrooxireno[2′,3′:9,10]cyclodeca[1,2-b]furan-5-yl)methyl)pentane-1,5-diyldicarbamate]
growth inhibition (GI50) ([1]; CCRF-CEM, HL-60 (TB), K-562, RPMI-8226, SR, NCI-H522, COLO 205, HCT-116, HT29, SW-620, LOX IMVI, OVCAR-3, RXF 393, MCF7): nano-molar range
GI50 values ([1]; remaining human cancer cell lines): low micromolar range
GI50 (CCRF-CEM): 0.28 µM
TGI (CCRF-CEM): 0.96 µM
CC50 (CCRF-CEM; read-out: LC50): > 100 µM
GI50 (MOLT-4): 1.48 µM
TGI (MOLT-4): 9.29 µM
CC50 (MOLT-4; read-out: LC50): > 100 µM
GI50 (RPMI-8226): 0.78 µM
TGI (RPMI-8226): 4.16 µM
CC50 (RPMI-8226; read-out: LC50): > 100 µM
GI50 (MDA-MB-435): 1.51 µM
TGI (MDA-MB-435): 3.32 µM
CC50 (MDA-MB-435; read-out: LC50): 7.3 µM
GI50 (SK-MEL-5): 3.19 µM
TGI (SK-MEL-5): 12.2 µM
CC50 (SK-MEL-5; read-out: LC50): 37 µM
GI50 (KM12): 6.53 µM
TGI (KM12): 21.0 µM
CC50 (KM12; read-out: LC50): 54.2 µM
GI50 (ACHN): 3.05 µM
TGI (ACHN): 9.84 µM
CC50 (ACHN; read-out: LC50): 35.4 µM
GI50 (MDA-MB-231/ATCC): 1.47 µM
TGI (MDA-MB-231/ATCC): 3.07 µM
CC50 (MDA-MB-231/ATCC; read-out: LC50): 6.4 µM
GI50 (OVCAR-5): 1.67 µM
TGI (OVCAR-5): 3.53 µM
CC50 (OVCAR-5; read-out: LC50): 7.47 µM
GI50 (OVCAR-8 [2]): 3.27 µM
TGI (OVCAR-8 [2]): 13.7 µM
CC50 (OVCAR-8 [2]; read-out: LC50): 61 µM

C=C1C(=O)O[C@H]2[C@H]1CC/C(COC(=O)CCC(=O)NCCCCCCCCCNC(=O)CCC(=O)OC/C1=C/CC[C@@]3(C)O[C@H]3[C@H]3OC(=O)C(=C)[C@@H]3CC1)=C\CC[C@@]1(C)O[C@@H]21 [JVM 2-92, bis(((1aR,7aS,10aS,10bS,E)-1a-Methyl-8-methylene-9-oxo-1a,2,3,6,7,7a,8,9,10a,10b-decahydrooxireno[2′,3′:9,10]cyclodeca[1,2-b]furan-5-yl)methyl)4,4′-(nonane-1,9-diylbis(azanediyl))bis (4-oxobutanoate)]
growth inhibition ([1]; NCI-H522, SW-620, LOX IMVI, MCF7, BT-549, MDA-MB-468): nano-molar range
growth inhibition ([1]; all hematological leukemia cell lines): nanomolar range
CC50 (K-562): > 100 µM
CC50 (SR): > 100 µM
CC50 (A549/ATCC): 82.6 µM
CC50 (HOP-92): 6.64 µM
CC50 (NCI-H23): 18.5 µM
CC50 (NCI-H460): 25.7 µM
CC50 (NCI-H522): 5.63 µM
CC50 (COLO 205): 8.15 µM
CC50 (SW-620): 6.14 µM
CC50 (SF-295): 52 µM
CC50 (SNB-75): 15.6 µM
CC50 (U251): 44.7 µM
CC50 (M14): 8.05 µM
CC50 (SK-MEL-2): 8.13 µM
CC50 (UACC-257): 32 µM
CC50 (UACC-62): 8.44 µM
CC50 (OVCAR-4): 8.06 µM
CC50 (OVCAR-8 [3]): > 100 µM
CC50 (786-0): 6.04 µM
CC50 (CAKI-1): 49.9 µM
CC50 (RXF 393): 6.21 µM
CC50 (UO-31): 45.6 µM
CC50 (HS 578T): > 100 µM
CC50 (MDA-MB-468): 7.04 µM
GI50 (CCRF-CEM): 0.28 µM
TGI (CCRF-CEM): 1.00 µM
GI50 (MOLT-4): 0.64 µM
TGI (MOLT-4): 4.20 µM
GI50 (RPMI-8226): 0.5 µM
TGI (RPMI-8226): 3.33 µM
GI50 (MDA-MB-435): 1.63 µM
TGI (MDA-MB-435): 3.44 µM
GI50 (SK-MEL-5): 1.88 µM
TGI (SK-MEL-5): 4.19 µM
GI50 (KM12): 4.6 µM
TGI (KM12): 17.1 µM
GI50 (ACHN): 2.1 µM
TGI (ACHN): 5.16 µM
GI50 (MDA-MB-231/ATCC): 1.58 µM
TGI (MDA-MB-231/ATCC): 4.05 µM
GI50 (OVCAR-5): 1.7 µM
TGI (OVCAR-5): 3.47 µM
GI50 (OVCAR-8 [2]): 3.24 µM
TGI (OVCAR-8 [2]): 16.5 µM

C=C1C(=O)O[C@H]2[C@H]1CC/C(COC(=O)CCC(=O)NCCCCCCCCNC(=O)CCC(=O)OC/C1=C/CC[C@@]3(C)O[C@H]3[C@H]3OC(=O)C(=C)[C@@H]3CC1)=C\CC[C@@]1(C)O[C@@H]21 [JVM 2-87, bis(((1aR,7aS,10aS,10bS,E)-1a-Methyl-8-methylene-9-oxo-1a,2,3,6,7,7a,8,9,10a,1b-decahydrooxireno[2′,3′:9,10]cyclodeca[1,2-b]furan-5-yl)methyl)4,4′-(octane-1,8-diylbis(azanediyl))bis(4-oxobutanoate)]
growth inhibition (GI50) ([1]; CCRF-CEM, HL-60 (TB), K-562, SR): nanomolar range
growth inhibition (GI50) ([1]; NCI-H522, RXF 393, MCF7): nanomolar range
growth inhibition (GI50) ([1]; other human tumor cell lines in the panel): low micromolar range
CC50 (K-562): > 100 µM
CC50 (SR): > 100 µM
CC50 (A549/ATCC): 89.4 µM
CC50 (HOP-92): 6.77 µM
CC50 (NCI-H23): 42.6 µM
CC50 (NCI-H460): 66.2 µM
CC50 (NCI-H522): 6.36 µM
CC50 (COLO 205): 7.28 µM
CC50 (SW-620): 7.2 µM
CC50 (SF-295): 56.8 µM
CC50 (SNB-75): 26.9 µM
CC50 (U251): 43 µM
CC50 (M14): 8.02 µM
CC50 (SK-MEL-2): 9.38 µM
CC50 (UACC-257): 16 µM
CC50 (UACC-62): 8.94 µM
CC50 (OVCAR-4): 9.38 µM
CC50 (OVCAR-8 [3]): > 100 µM
CC50 (786-0): 6.67 µM
CC50 (CAKI-1): 80.3 µM
CC50 (RXF 393): 7.27 µM
CC50 (UO-31): 54 µM
CC50 (HS 578T): > 100 µM
CC50 (MDA-MB-468): 21.3 µM
GI50 (CCRF-CEM): 0.32 µM
TGI (CCRF-CEM): 1.48 µM
GI50 (MOLT-4): 2.11 µM
TGI (MOLT-4): 6.41 µM
GI50 (RPMI-8226): 1.67 µM
TGI (RPMI-8226): 5.70 µM
GI50 (MDA-MB-435): 1.8 µM
TGI (MDA-MB-435): 3.69 µM
GI50 (SK-MEL-5): 3.13 µM
TGI (SK-MEL-5): 11.1 µM
GI50 (KM12): 9.46 µM
TGI (KM12): 22.9 µM
GI50 (ACHN): 3.13 µM
TGI (ACHN): 10.9 µM
GI50 (MDA-MB-231/ATCC): 1.97 µM
TGI (MDA-MB-231/ATCC): 4.41 µM
GI50 (OVCAR-5): 1.82 µM
TGI (OVCAR-5): 3.64 µM
GI50 (OVCAR-8 [2]): 2.9 µM
TGI (OVCAR-8 [2]): 13.3 µM
